In ChEMBL document CHEMBL6153159, “Eperisone Analogs, Rescuers of MiaB Defects As a Prokaryotic Homologue of CDKAL1, Suppress Blood Glucose Elevation in Rats” (ACS Med Chem Lett, 2025) one finds Ratio, Activity and concentration data, which are given here for 44 molecules.

The source made the active and inactive calls. The rule behind the calls is not given here. A value given as a limit tells only on which side of the number the result lay.

Series [1] has as its target T1, Threonylcarbamoyladenosine tRNA methylthiotransferase (Homo sapiens) (UniProt Q5VV42).
T1 sequence (whole entry): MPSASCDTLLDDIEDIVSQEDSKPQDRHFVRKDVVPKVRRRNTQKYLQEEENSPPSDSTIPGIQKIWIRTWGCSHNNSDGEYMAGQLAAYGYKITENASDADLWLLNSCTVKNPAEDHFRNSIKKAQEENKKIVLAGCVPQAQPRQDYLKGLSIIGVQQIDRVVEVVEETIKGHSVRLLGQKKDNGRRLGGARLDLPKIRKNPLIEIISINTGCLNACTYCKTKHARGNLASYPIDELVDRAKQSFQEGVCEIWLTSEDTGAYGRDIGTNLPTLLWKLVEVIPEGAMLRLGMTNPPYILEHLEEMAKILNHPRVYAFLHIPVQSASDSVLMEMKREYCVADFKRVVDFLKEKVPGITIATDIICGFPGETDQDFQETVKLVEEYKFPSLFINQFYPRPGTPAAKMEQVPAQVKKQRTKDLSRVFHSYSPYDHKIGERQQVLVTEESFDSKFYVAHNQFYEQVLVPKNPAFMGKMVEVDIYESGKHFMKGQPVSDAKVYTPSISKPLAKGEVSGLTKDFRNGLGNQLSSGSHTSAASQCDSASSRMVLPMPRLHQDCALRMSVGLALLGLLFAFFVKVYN
The series is described as follows: Rescue of mistranslation activity in CDKAL1 (unknown origin) extracted from Escherichia coli harboring MIaB deficient at 10 uM incubated for 1 hr by dual luciferase assay.

Series [2] relates to Rattus norvegicus. The series can be described thus: Hypoglycemic effect in male Wister rat assessed as reduction in blood glucose level at 100 mg/kg, sc measured immediately after oral glucose challenge by OGTT analysis. It counts as functional, organism-based. To be noted: time 0.0 min.
The test system of series [3] is Rattus norvegicus. The series can be described thus: Antihyperglycemic activity in male Wister rat assessed as reduction in blood glucose level at 100 mg/kg, sc measured at 30 mins after oral glucose challenge by OGTT analysis. Type of series: functional, organism-based.
Series [4] relates to MIN6. The series can be described thus: Induction of insulin secretion in mouse MIN6 cells at 10 uM incubated for 24 hrs by ELISA method. Type of series: functional, cell-based.
Series [5] is described as follows: Drug concentration in Wister rat plasma at 100 mg/kg, sc measured after 60 mins. It counts as ADME, organism-based. Conditions: Wistar.
Series [6] can be described thus: Drug concentration in Wister rat plasma at 100 mg/kg, po measured after 60 mins. Type of series: ADME, organism-based. To be noted: Wistar.
Series [7] deals with MIN6. The series is described as follows: Cytotoxicity against mouse MIN6 cells at 10 uM by MTT assay relative to control. It counts as toxicity, cell-based. To be noted: min6, 10 µM.
For series [8], the system named is Rattus norvegicus. The series is described as follows: Antihyperglycemic activity in male Wister rat assessed as reduction in blood glucose level at 100 mg/kg, sc measured at 60 mins after oral glucose challenge by OGTT analysis. Type of series: functional, organism-based.
For series [9], the system named is MIN6. The series is described as follows: Induction of insulin secretion in mouse MIN6 cells at 3 uM incubated for 24 hrs by ELISA method. Type of series: functional, cell-based. (In general: An ELISA detects its analyte on a solid surface through an enzyme-linked reagent.)

As to `CCc1ccccc1C(=O)C(C)CN1CCCCC1` (racemic), the Ratio in series [1] came to 0.98.

Take `CC(CN1CCCCC1)C(=O)c1ccc(C2CCCCC2)cc1` (racemic): the Ratio in series [1] was 1.3. In the case of `CCc1ccc(C(=O)C(C)CN2CCCCC2)o1` (racemic), the Ratio in series [1] is 0.99.

As to `CCc1ccc(C(=O)C(C)CN2CCC(c3ccccc3)CC2)cc1` (racemic), in series [1], the Ratio came to 1.01. As for `Cc1ccc(C(=O)C(C)CN2CCCCC2)cc1` (racemic), the Ratio in series [1] is 0.99.

Regarding `CC(CN1CCCCC1)C(=O)c1ccc(OCCO)cc1` (racemic), in series [1], the Ratio came to 0.82. As to `CC(C)Oc1ccc(C(=O)C(C)CN2CCCCC2)cc1` (racemic), the Ratio in series [1] was 0.93. On to `CCc1ccc(C(=O)C(C)CN2CCC(C)CC2)cc1` (racemic), for which the Ratio in [1] is 0.98. With `CCc1ccc(C(=O)C(C)CNC2CCCCC2)cc1` (racemic), the Ratio in [1] came out at 0.95. Take `CC(CN1CCCCC1)C(=O)c1cccc(C(C)(C)C)c1` (racemic): the Ratio in [1] was 0.95. On to `CC(CN1CCCCC1)C(=O)c1ccc(CC(C)(C)C)cc1` (racemic), for which the Ratio in series [1] is 1.05. For `CCc1ccc(C(=O)C(C)CN2CCOCC2)cc1` (racemic), in series [1], the Ratio was found to be 1.29.

As for `CCC(C)(C)c1ccc(C(=O)C(C)CN2CCCCC2)cc1` (racemic), the Ratio in series [1] was found to be 0.85. As for `CCc1ccc(C(=O)C(C)CN2CCCCC2)s1` (racemic), the Ratio in series [1] is 0.63. In the case of `CC(C)(C)c1ccc(C(=O)C(CN2CCCCC2)C(=O)O)cc1` (racemic), the Ratio in series [1] was found to be 1.16.

In the case of `CCc1ccc(C(=O)C(C)CN2CCCC2)cc1` (racemic), the Ratio in series [1] turned out to be 1.01. With `CCOc1ccc(C(=O)C(C)CN2CCCCC2)cc1` (racemic), the Ratio in series [1] amounted to 0.84. Consider `CCc1ccc(C(=O)C(C)CN2CCSCC2)cc1` (racemic), for which, in series [1], the Ratio came to 0.97. On to `CCc1ccc(C(=O)C(C)CN2CCN(CC)CC2)cc1` (racemic), for which the Ratio in [1] stood at 0.71.

For the molecule `CCc1ccc(C(=O)C(C)CN2CCCCC2)cc1` (stereo not drawn), the Ratio in series [1] came to 0.7. With `CCc1ccc(C(=O)C(C)(C)CN2CCCCC2)cc1`, in [1], the Ratio came to 0.66.

Turning to `CCCOc1ccc(C(=O)C(C)CN2CCCCC2)cc1` (racemic), the Ratio in [1] is 0.85. Regarding `CC(CN1CCCCC1)C(=O)c1ccc(Cl)cc1` (racemic), in series [1], the Ratio is 0.86.

For `CC(C)[C@H]1CC[C@H](C(=O)N[C@H](Cc2ccccc2)C(=O)O)CC1`, the result in the series on Rattus norvegicus [2] was Active. As to `CCc1ccc(C(=O)C(C)CN2CCC(OC)CC2)cc1` (racemic), the Ratio in [1] came out at 1.13. As to `CC(CN1CCCCC1)C(=O)c1ccc(Br)cc1` (racemic), the Ratio in [1] worked out at 0.84.

For `CSCCOc1ccc(C(=O)C(C)CN2CCCCC2)cc1` (racemic), in series [1], the Ratio came out at 0.96. Turning to `CCc1ccc(C(=O)C(C)CC2CCNCC2)cc1` (racemic), the Ratio in series [1] is 0.75. `CCCc1ccc(C(=O)C(C)CN2CCCCC2)cc1` (racemic): the Ratio in [1] stood at 1.01. Turning to `COCCOc1ccc(C(=O)C(C)CN2CCCCC2)cc1.Cl` (racemic), the outcome with Rattus norvegicus [3], in the series with MIN6 [4] and in the series with Rattus norvegicus [8] was Active. Further, the concentration at 1 h in series [5] is greater than 15 µM; in series [6], no more than 2 µM. Further, in [1], the Ratio stood at 0.53. Also, the Activity with MIN6 [7] is given as 3%. In the series on Rattus norvegicus [2], the result was inactive. `CC(CN1CCCCC1)C(=O)c1ccc(O)cc1` (racemic): the Ratio in series [1] was 0.71. `CCc1cccc(C(=O)C(C)CN2CCCCC2)c1` (racemic): the Ratio in series [1] turned out to be 0.95.

Take `CCC(CN1CCCCC1)C(=O)c1ccc(C(C)(C)C)cc1` (racemic): the Ratio in [1] was 0.73. Take `CC(CN1CCCCC1)C(=O)c1ccc(C(C)(C)C)cc1.Cl` (racemic): the outcome with Rattus norvegicus [3], with MIN6 [9] and with Rattus norvegicus [8] was Active. The concentration at 1 h in series [5] is greater than 15 µM; in series [6] it was no more than 2 µM. The Ratio in series [1] turned out to be 0.44. The same molecule showed an Activity in the series with MIN6 [7] of 4%. In the series on Rattus norvegicus [2], the outcome was inactive. On to `CCCCOc1ccc(C(=O)C(C)CN2CCCCC2)cc1` (racemic), for which the Ratio in [1] is 0.8. The same measure, in the same setting: the figure for `CC(C)(C)c1ccc(C(=O)CCN2CCCCC2)cc1` is 0.8; for `CCc1ccc(C(=O)C(C)CN2CCCCCC2)cc1` (racemic) it is 1.01; for `CCc1ccc(C(=O)C(C)CN2CCN(C)CC2)cc1` (racemic) it is 0.7. In the case of `CCc1ccc(C(=O)CCN2CCCCC2)cc1`, the Ratio in [1] was found to be 0.8. Take `CC(CN1CCCCC1)C(=O)c1ccc(F)cc1` (racemic): in [1], the Ratio amounted to 1.08. Still for that read-out and setting: the figure for `CC(C)COc1ccc(C(=O)C(C)CN2CCCCC2)cc1` (racemic) is 0.88; for `CC(CN1CCCCC1)C(=O)c1ccc(C(C)C)cc1` (racemic) it is 0.78.

In the case of `CCc1ccc(C(=O)C(C)Cc2ccncc2)cc1` (racemic), the Ratio in [1] worked out at 1.04. With `CC(CN1CCCCC1)C(=O)c1ccc(C(F)(F)F)cc1` (racemic), the Ratio in series [1] was determined as 0.87.
